# Data reported in patent US20150258106A1, “METHODS FOR ACUTE AND LONG-TERM TREATMENT OF SUBSTANCE ABUSE” (DEMERX, INC., priority 2014, published 2015).
# Entries after “also recorded” stand apart in the source; their conditions may differ. Like-named read-outs stand apart in the source and are kept apart here.
# Key:
# Type in all cases: in vivo, human
# [1] = system: healthy, drug-free male volunteers; assay: Cold pressor test (analgesic effect) in healthy volunteers
# Experimental: Summary statistics (means, standard deviations, and coefficients of variation) were determined for each dose group for safety laboratory test data, ECG and pharmacokinetic parameters, and pharmacodynamic variables. Categorical variables were analysed using counts and percentages. Dose-proportionality of AUC and Cmax was assessed using linear regression. The effect of dose on pharmacodynamic parameter values over time was assessed using two-factor analysis of variance (ANOVA). Pairwise comparisons (with Tukey-Kramer adjustment) between each dose group to the placebo were conducted at each time point using the least squares estimates obtained from the ANOVA, using SAS Proc Mixed (SAS ver 6.0).
# Analgesic effect was assessed based on duration of hand immersion in ice water and on visual analog scale (VAS) pain scores upon hand removal from the water bath.
# (§1) Safety and tolerability of noribogaine were tested in the group of volunteers from Example 1. […] Safety evaluations included clinical monitoring, recording of adverse events (AEs), safety laboratory tests, vital signs, ECG telemetry from −2 h to 6 h after dosing, and 12-lead electrocardiograms (ECGs) up to 216 hours post-dosing.
# [2] = system: healthy, drug-free male volunteers; assay: Safety and tolerability of noribogaine in healthy humans (adverse events, vital signs, ECG)
# Experimental: Pulse oximetry and capnography data were collected continuously using a GE Carescape B650 monitoring system from 2 hours prior to dosing and until six hours after dosing, and thereafter at 12, 24, 48 and 72 hours post-dosing. […] Pupillary miosis was assessed by pupillometry.
# as §1
# [3] = Pharmacokinetics in opioid-dependent patients (Phase IB study); settings: for AUC(0-t) / AUC / half-life / Tmax / Vd/F / Cmax: human, serum, opioid-dependent patients
# Experimental: (§2) Three cohorts of nine (9) subjects (6 administered noribogaine and 3 administered placebo in each cohort) were evaluated for tolerability, pharmacokinetics, and efficacy. Cohort 1 received a single dose of 60 mg noribogaine or placebo. Cohort 2 received a single dose of 120 mg noribogaine or placebo. Cohort 3 received a single dose of 180 mg noribogaine or placebo. […] Headaches were frequent in the placebo and 60 mg noribogaine treatment groups, but were attenuated in the 120 mg and 180 mg dose groups.
# [4] = system: opioid-dependent participants; assay: Time to resumption of opioid substitution treatment (OST) in opioid-dependent participants
# Experimental: The efficacy of noribogaine in humans was evaluated in opioid-dependent participants in a randomized, placebo-controlled, double-blind trial. […] See U.S. application Ser. No. 14/214,157, filed Mar. 14, 2014 and Ser. No. 14/346,655, filed Mar. 21, 2014, which are incorporated herein by reference in their entireties.
# as §2
# [5] = system: opioid-dependent participants; assay: Opiate withdrawal scales (COWS, SOWS, OOWS) in opioid-dependent participants
# Experimental: Patients were evaluated based on the Clinical Opiate Withdrawal Scale (COWS), Subjective Opiate Withdrawal Scale (SOWS), and Objective Opiate Withdrawal Scale (OOWS) scoring systems over the period of time between administration of noribogaine (or placebo) until resumption of OST. These scales are outlined in Guidelines for the Psychosocially Assisted Pharmacological Treatment of Opioid Dependence, World Health Organization, Geneva (2009), Annex 10, which is incorporated herein by reference in its entirety. The scales measure the intensity of withdrawal symptoms, based on clinical, subjective, and objective indicia.
# [6] = system: opioid-dependent participants; assay: QT interval evaluation in opioid-dependent participants; settings: opioid-dependent patients, first 24 hours post administration, 60-180 mg
# Experimental: Patients' QT intervals were evaluated at regular time points throughout the study.
smiles,measurement,setting,value
CCC1CC2CC3c4[nH]c5ccc(O)cc5c4CCN(C2)C13 (stereo not drawn) [Noribogaine],"VAS pain scores upon hand removal, each dose group compared with placebo by ANOVA","[1]; after adjusting for baseline differences, p=0.17",no statistically significant differences
same,"duration of hand immersion in ice water, each dose group compared with placebo by ANOVA","[1]; after adjusting for baseline differences, p>0.9",no statistically significant differences
same,analgesic effect in the cold pressor test,"[1]; healthy volunteers, 3-60 mg single oral dose",no analgesic effect
same,"adverse events, Mild","[2]; healthy volunteers, 3 mg dose",Back pain; also recorded: Dizziness; also recorded: Epistaxis; also recorded: Headache
same,"adverse events, Moderate","[2]; healthy volunteers, 3 mg dose",Headache
same,number of adverse events reported,"[2]; healthy volunteers, 3 mg dose group",five adverse events were reported by two subjects
same,"adverse events, Mild","[2]; healthy volunteers, 10 mg dose",Headache
same,number of adverse events reported,"[2]; healthy volunteers, 10 mg dose group, single subject",one adverse event
same,"adverse events, Mild","[2]; healthy volunteers, 30 mg dose",Headache
same,number of adverse events reported,"[2]; healthy volunteers, 30 mg dose group, single subject",one adverse event
same,"oximetry, capnography, respiratory rate","[2]; healthy volunteers, 3-60 mg","no changes in oximetry or capnography, or changes in respiratory rate"
same,vital signs and safety laboratory tests,"[2]; healthy volunteers, 3-60 mg",no changes in vital signs or safety laboratory tests of note
same,intensity of adverse events,"[2]; healthy volunteers, all groups, all resolved prior to study completion",mild-moderate intensity
same,QTcF values,"[2]; healthy volunteers, at any time",≤ 500 ms
same,single increase in QTcF,"[2]; one subject dosed with 10 mg, at 24 hours post-dosing",> 60 ms
same,AUC(0-t),"[3]; 60 mg, Cohort 1 (60 mg), mean ± SD, read-out: AUC(0-T)",2020 ± 614 ng·h/mL
same,AUC,"[3]; 60 mg, Cohort 1 (60 mg), mean ± SD, read-out: AUC(0-¥)",2060 ± 609 ng·h/mL
same,half-life,"[3]; 60 mg, Cohort 1 (60 mg), mean ± SD, read-out: Half-life (converted)",29.3 ± 7.28 h
same,Tmax,"[3]; 60 mg, Cohort 1 (60 mg), mean ± SD, read-out: Tmax",3.59 ± 0.92 h
same,Vd/F,"[3]; 60 mg, Cohort 1 (60 mg), mean ± SD, read-out: Vd/F",1440 ± 854 L
same,AUC(0-t),"[3]; 60 mg, Cohort 1 (60 mg), range, read-out: AUC(0-T) [range]",1090 to 2530 ng·h/mL
same,AUC,"[3]; 60 mg, Cohort 1 (60 mg), range, read-out: AUC(0-¥) [range]",1120 to 2550 ng·h/mL
same,half-life,"[3]; 60 mg, Cohort 1 (60 mg), range, read-out: Half-life [range]",18.3 to 37.3 h
same,Tmax,"[3]; 60 mg, Cohort 1 (60 mg), range, read-out: Tmax [range]",2.5 to 5 h
same,Vd/F,"[3]; 60 mg, Cohort 1 (60 mg), range, read-out: Vd/F [range]",620 to 2770 L
same,Cmax,"[3]; 60 mg, Cohort 1 (60 mg), mean ± SD, read-out: Cmax",81.6 ± 23.8 ng/mL
same,Cmax,"[3]; 60 mg, Cohort 1 (60 mg), range, read-out: Cmax [range]",41.3 to 113 ng/mL
same,AUC(0-t),"[3]; 120 mg, Cohort 2 (120 mg), mean ± SD, read-out: AUC(0-T)",3230 ± 1540 ng·h/mL
same,AUC,"[3]; 120 mg, Cohort 2 (120 mg), mean ± SD, read-out: AUC(0-¥)",3280 ± 1580 ng·h/mL
same,half-life,"[3]; 120 mg, Cohort 2 (120 mg), mean ± SD, read-out: Half-life (converted)",30.4 ± 9.14 h
same,Tmax,"[3]; 120 mg, Cohort 2 (120 mg), mean ± SD, read-out: Tmax",2.99 ± 1.23 h
same,Vd/F,"[3]; 120 mg, Cohort 2 (120 mg), mean ± SD, read-out: Vd/F",2110 ± 1640 L
same,AUC(0-t),"[3]; 120 mg, Cohort 2 (120 mg), range, read-out: AUC(0-T) [range]",1560 to 5640 ng·h/mL
same,AUC,"[3]; 120 mg, Cohort 2 (120 mg), range, read-out: AUC(0-¥) [range]",1600 to 5770 ng·h/mL
same,half-life,"[3]; 120 mg, Cohort 2 (120 mg), range, read-out: Half-life [range]",21.9 to 48.3 h
same,Tmax,"[3]; 120 mg, Cohort 2 (120 mg), range, read-out: Tmax [range]",0.98 to 4.02 h
same,Vd/F,"[3]; 120 mg, Cohort 2 (120 mg), range, read-out: Vd/F [range]",824 to 5240 L
same,Cmax,"[3]; 120 mg, Cohort 2 (120 mg), mean ± SD, read-out: Cmax",173 ± 30.7 ng/mL
same,Cmax,"[3]; 120 mg, Cohort 2 (120 mg), range, read-out: Cmax [range]",139 to 230 ng/mL
same,AUC(0-t),"[3]; 180 mg, Cohort 3 (180 mg), mean ± SD, read-out: AUC(0-T)",6520 ± 2910 ng·h/mL
same,AUC,"[3]; 180 mg, Cohort 3 (180 mg), mean ± SD, read-out: AUC(0-¥)",6890 ± 3490 ng·h/mL
same,half-life,"[3]; 180 mg, Cohort 3 (180 mg), mean ± SD, read-out: Half-life (converted)",23.9 ± 5.54 h
same,Tmax,"[3]; 180 mg, Cohort 3 (180 mg), mean ± SD, read-out: Tmax",4.41 ± 1.8 h
same,Vd/F,"[3]; 180 mg, Cohort 3 (180 mg), mean ± SD, read-out: Vd/F",1030 ± 365 L
same,AUC(0-t),"[3]; 180 mg, Cohort 3 (180 mg), range, read-out: AUC(0-T) [range]",3720 to 10400 ng·h/mL
same,AUC,"[3]; 180 mg, Cohort 3 (180 mg), range, read-out: AUC(0-¥) [range]",3730 to 12300 ng·h/mL
same,half-life,"[3]; 180 mg, Cohort 3 (180 mg), range, read-out: Half-life [range]",19.3 to 34.9 h
same,Tmax,"[3]; 180 mg, Cohort 3 (180 mg), range, read-out: Tmax [range]",3 to 8 h
same,Vd/F,"[3]; 180 mg, Cohort 3 (180 mg), range, read-out: Vd/F [range]",581 to 1610 L
same,Cmax,"[3]; 180 mg, Cohort 3 (180 mg), mean ± SD, read-out: Cmax",268 ± 46.9 ng/mL
same,Cmax,"[3]; 180 mg, Cohort 3 (180 mg), range, read-out: Cmax [range]",205 to 338 ng/mL
same,Maximum serum concentration of noribogaine (Cmax) versus dose,"[3]; opioid-dependent patients, 60, 120, 180 mg",increased in a dose-dependent manner
same,average time to resumption of opioids,"[4]; opioid-dependent patients, single 120 mg dose",greater than 20 hours
same,Time to resumption of OST compared with untreated patients or 60 mg noribogaine,[4]; single 180 mg dose,longer than untreated patients
same,"withdrawal symptoms (COWS, OOWS, SOWS), first six hours following dosing","[5]; opioid-dependent patients, 120 mg",fewer withdrawal symptoms than the other patients
same,"withdrawal symptoms (COWS, OOWS, SOWS), noribogaine compared with placebo","[5]; opioid-dependent patients, 60, 120 or 180 mg",Patients administered placebo generally experienced more withdrawal symptoms than patients who were administered noribogaine
same,QT interval prolongation (ΔQTc1),[6],dose-dependent increase in QT interval prolongation
